US11840686B2, “Modulation of prekallikrein (PKK) expression” (Ionis Pharmaceuticals, Inc., priority 2013, dated 2023)
Strand notation (5' to 3'): a small letter for the sugar, then the base; units joined by * are phosphorothioate-linked, units joined directly phosphodiester-linked; [ ] holds rarer units or linkages, { } end groups; capitals alone tell only the bases. e = 2'-O-(2-methoxyethyl) (MOE); [5mC] = 5-methylcytosine; d = 2'-deoxy (DNA)

Test system: human PKK mRNA
Experiment: Antisense inhibition of human PKK mRNA in HepaRG cells, 5,000 nM (Example 2)
Assay type: cell-based
Method: Additional antisense oligonucleotides were designed targeting a PKK nucleic acid and were tested for their effects on PKK mRNA in vitro.
The chimeric antisense oligonucleotides in the tables below were designed as 5-10-5 MOE gapmers, 4-9-4 MOE gapmers, 4-10-4 MOE gapmers, 4-10-3 MOE gapmers, 3-10-4 MOE gapmers, or 3-10-3 MOE gapmers. The 5-10-5 MOE gapmers are 20 nucleosides in length, wherein the central gap segment comprises of ten 2′-deoxynucleosides and is flanked by wing segments on the 5′ direction and the 3′ direction comprising five nucleosides each. The 4-9-4 MOE gapmers are 17 nucleosides in length, wherein the central gap segment comprises of nine 2′-deoxynucleosides and is flanked by wing segments on the 5′ direction and the 3′ direction comprising four nucleosides each. The 4-10-4 MOE gapmers are 18 nucleosides in length, wherein the central gap segment comprises of ten 2′-deoxynucleosides and is flanked by wing segments on the 5′ direction and the 3′ direction comprising four nucleosides each. The 4-10-3 MOE gapmers are 17 nucleosides in length, wherein the central gap segment comprises of ten 2′-deoxynucleosides and is flanked by wing segments on the 5′ direction and the 3′ direction comprising four and three nucleosides respectively. The 3-10-4 MOE gapmers are 17 nucleosides in length, wherein the central gap segment comprises often 2′-deoxynucleosides and is flanked by wing segments on the 5′ direction and the 3′ direction comprising three and four nucleosides respectively. The 3-10-3 MOE gapmers are 16 nucleosides in length, wherein the central gap segment comprises of ten 2′-deoxynucleosides and is flanked by wing segments on the 5′ direction and the 3′ direction comprising three nucleosides each. Each nucleoside in the 5′ wing segment and each nucleoside in the 3′ wing segment has a 2′-O-methoxyethyl modification. The internucleoside linkages throughout each gapmer are phosphorothioate linkages. All cytosine residues throughout each gapmer are 5-methylcytosines. “Start site” indicates the 5′-most nucleoside to which the gapmer is targeted in the human gene sequence. “Stop site” indicates the 3′-most nucleoside to which the gapmer is targeted in the human gene sequence.
Cultured HepaRG™ cells at a density of 20,000 cells per well were transfected using electroporation with 5,000 nM antisense oligonucleotide. After a treatment period of approximately 24 hours, RNA was isolated from the cells and PKK mRNA levels were measured by quantitative real-time PCR. Human primer probe set RTS3454 was used to measure mRNA levels. PKK mRNA levels were adjusted according to total RNA content, as measured by RIBOGREEN®. The antisense oligonucleotides were tested in a series of experiments that had similar culture conditions. Results are presented as percent inhibition of PKK, relative to untreated control cells.

[1] = Table 9 experiment, HepaRG cells, 20,000 cells per well, electroporation with 5,000 nM antisense oligonucleotide, approx. 24 hours, PKK mRNA by RT-PCR (RTS3454), relative to untreated control cells
[2] = Table 10 experiment, HepaRG cells, 20,000 cells per well, electroporation with 5,000 nM antisense oligonucleotide, approx. 24 hours, PKK mRNA by RT-PCR (RTS3454), relative to untreated control cells
[3] = HepaRG cells, electroporation, 5,000 nM antisense oligonucleotide, approx. 24 hours, primer probe set RTS3454, relative to untreated control cells, Table 12
[4] = HepaRG cells, electroporation, 5,000 nM antisense oligonucleotide, approx. 24 hours, primer probe set RTS3454, relative to untreated control cells, Table 11
[5] = human PKK mRNA, HepaRG cells, 5,000 nM antisense oligonucleotide, Table 18
[6] = HepaRG cells, electroporation with 5,000 nM antisense oligonucleotide, approximately 24 hours, PKK mRNA by RT-PCR (RTS3454), relative to untreated control cells, Table 6 experiment
[7] = HepaRG cells, electroporation with 5,000 nM antisense oligonucleotide, approximately 24 hours, PKK mRNA by RT-PCR (RTS3454), relative to untreated control cells, Table 5 experiment
[8] = HepaRG cells, 5,000 nM antisense oligonucleotide, 5-10-5 gapmers, Table 16
[9] = human PKK mRNA in HepaRG cells, 5-10-5 gapmers, Table 14
[10] = human PKK mRNA, HepaRG cells, 5-10-5 motif oligonucleotides targeting SEQ ID NO: 1 and 10

547488 (antisense eA*e[5mC]*eA*e[5mC]*e[5mC]*dA*dG*dG*dT*dT*dG*d[5mC]*dT*d[5mC]*d[5mC]*e[5mC]*eT*eG*e[5mC]*eG) [compound 547488]
% inhibition [1]: 71%
% inhibition [2]: 72%

547542 (antisense eA*eT*eA*e[5mC]*eT*d[5mC]*dG*d[5mC]*d[5mC]*dT*dT*dT*dG*dT*dG*eA*e[5mC]*eT*e[5mC]*eG) [compound 547542]
% inhibition [3]: 35%

547500 (antisense e[5mC]*e[5mC]*eT*eA*eG*dA*d[5mC]*dT*d[5mC]*dT*dG*dG*dA*d[5mC]*dT*eG*e[5mC]*eT*eT*e[5mC]) [compound 547500]
% inhibition [4]: 65%

548775 (antisense eT*e[5mC]*e[5mC]*eT*dA*dT*dA*dA*d[5mC]*dT*dA*dT*dA*eA*e[5mC]*eA*eG) [compound 548775]
% inhibition [5]: 0%

547548 (antisense eT*eG*e[5mC]*eA*eT*dA*d[5mC]*dT*d[5mC]*dG*d[5mC]*d[5mC]*dT*dT*dT*eG*eT*eG*eA*eT) [compound 547548]
% inhibition [3]: 61%

546205 (antisense eG*eT*eA*e[5mC]*eT*dT*dT*dA*dA*dT*dA*dG*dG*d[5mC]*dA*eA*eT*eT*eG*eT) [compound 546205]
% inhibition [6]: 83%

546177 (antisense eT*eG*eT*e[5mC]*e[5mC]*dA*dG*dA*dA*dA*d[5mC]*dT*dG*d[5mC]*dA*e[5mC]*e[5mC]*eT*eG*eT) [compound 546177]
% inhibition [6]: 75%

547346 (antisense eA*e[5mC]*e[5mC]*eT*eT*dA*dG*dA*d[5mC]*dA*d[5mC]*dA*dT*dT*dA*eA*eA*eA*eT*eT) [compound 547346]
% inhibition [6]: 57%

547290 (antisense eA*eG*e[5mC]*eT*eA*d[5mC]*dA*dT*d[5mC]*d[5mC]*d[5mC]*d[5mC]*dA*d[5mC]*d[5mC]*eT*e[5mC]*eT*eG*eA) [compound 547290]
% inhibition [7]: 76%

547704 (antisense eA*e[5mC]*eA*eT*e[5mC]*dT*dT*dG*dT*d[5mC]*dA*dT*dT*dA*dA*e[5mC]*eA*eT*e[5mC]*e[5mC]) [compound 547704]
% inhibition [8]: 61%

547317 (antisense e[5mC]*eA*eG*eA*eA*dA*d[5mC]*dT*dG*d[5mC]*dA*d[5mC]*d[5mC]*dT*dG*eT*eT*e[5mC]*eG*eA) [compound 547317]
% inhibition [6]: 75%

546707 (eG*e[5mC]*eA*eA*eG*dT*d[5mC]*dA*dA*dA*dG*dA*dG*dT*dG*eT*e[5mC]*e[5mC]*eA*e[5mC]; antisense) [compound 546707]
% inhibition [3]: 73%

546393 (eT*e[5mC]*eT*e[5mC]*eA*dG*dT*dT*dG*d[5mC]*dG*dA*d[5mC]*d[5mC]*dT*e[5mC]*eG*e[5mC]*eA*eT; antisense) [compound 546393]
% inhibition [4]: 77%

547508 (antisense e[5mC]*e[5mC]*e[5mC]*e[5mC]*eA*dG*dG*d[5mC]*dT*d[5mC]*dA*dG*dA*dA*dT*eT*eT*eG*eA*e[5mC]) [compound 547508]
% inhibition [4]: 69%

547691 (antisense eA*e[5mC]*eT*eG*eT*dA*dA*d[5mC]*dA*dA*dT*dA*dT*d[5mC]*dA*e[5mC]*eT*eG*eT*e[5mC]) [compound 547691]
% inhibition [8]: 36%

547484 (antisense e[5mC]*eT*eA*eA*eG*dG*dG*dA*d[5mC]*d[5mC]*dA*d[5mC]*d[5mC]*dT*dG*eA*eA*eT*e[5mC]*eT) [compound 547484]
% inhibition [1]: 69%
% inhibition [2]: 64%

547336 (antisense eT*eT*eT*eA*eT*dA*dA*dA*dT*dG*dT*d[5mC]*dT*d[5mC]*dG*eA*eT*eG*eG*e[5mC]) [compound 547336]
% inhibition [6]: 81%

546144 (e[5mC]*eA*e[5mC]*eA*eG*dG*dA*dA*dA*d[5mC]*dT*dG*dT*dA*dG*e[5mC]*eA*eA*eA*e[5mC]; antisense) [compound 546144]
% inhibition [7]: 75%

546862 (eA*eA*e[5mC]*eT*eA*dT*dA*dA*d[5mC]*dA*dA*dT*dA*dT*d[5mC]*eA*e[5mC]*eT*eG*eT; antisense) [compound 546862]
% inhibition [9]: 0%

546151 (eG*eG*eA*eA*eG*d[5mC]*dT*dA*d[5mC]*dA*dT*d[5mC]*d[5mC]*d[5mC]*d[5mC]*eA*e[5mC]*e[5mC]*eT*e[5mC]; antisense) [compound 546151]
% inhibition [7]: 76%

547375 (eG*eT*eG*eA*eT*dA*dG*dG*dT*dG*d[5mC]*dA*dG*dA*dT*eG*eG*eT*e[5mC]*e[5mC]; antisense) [compound 547375]
% inhibition (Table 7, HepaRG cells, electroporation with 5,000 nM antisense oligonucleotide, approx. 24 hours, PKK mRNA by RT-PCR (RTS3454), relative to untreated control cells): 72%

547661 (eT*eA*eA*e[5mC]*eT*dA*dT*dA*dA*d[5mC]*dA*dG*dT*dA*dT*e[5mC]*eA*e[5mC]*e[5mC]*eG; antisense) [compound 547661]
% inhibition [10]: 80%

546908 (eT*e[5mC]*eA*e[5mC]*eT*dG*dT*dA*d[5mC]*d[5mC]*dT*dA*dT*dA*dA*e[5mC]*eT*eA*eT*eA; antisense) [compound 546908]
% inhibition [10]: 77%

547465 (antisense eA*eA*eA*eT*eT*dG*dT*dG*d[5mC]*dT*dT*dG*dT*dG*dT*e[5mC]*eA*e[5mC]*e[5mC]*eT) [compound 547465]
% inhibition [1]: 88%
% inhibition [2]: 85%

547016 (eG*eT*eA*eG*eG*dT*dG*dG*dT*dG*dG*dG*dA*dT*dT*eG*eG*eT*eG*eG; antisense) [compound 547016]
% inhibition (HepaRG cells, 5,000 nM antisense oligonucleotide, 5-10-5 gapmers, Table 17): 62%

547448 (antisense eT*eT*eA*eT*eT*dT*dG*dT*dG*dA*dG*dA*dA*dA*dG*eG*eT*eG*eT*eA) [compound 547448]
% inhibition [1]: 75%
% inhibition [2]: 83%

546710 (eG*eA*eA*eG*e[5mC]*d[5mC]*dT*dG*dT*dT*dA*dG*dA*dG*dT*eT*eG*eG*e[5mC]*e[5mC]; antisense) [compound 546710]
% inhibition [3]: 73%

547572 (eA*eA*eA*eT*eG*dA*d[5mC]*dA*d[5mC]*d[5mC]*dA*dA*dA*dA*dT*eT*e[5mC]*eG*e[5mC]*eT; antisense) [compound 547572]
% inhibition (Table 13, human PKK mRNA in HepaRG cells, 5-10-5 gapmers): 40%

546386 (eA*eG*e[5mC]*e[5mC]*eA*dG*dA*d[5mC]*dA*dT*dT*dG*dT*d[5mC]*d[5mC]*eT*e[5mC]*eA*eG*e[5mC]; antisense) [compound 546386]
% inhibition [4]: 78%

548732 (DNA eA*e[5mC]*eT*eG*dT*dA*d[5mC]*dT*dA*dG*dT*dT*dT*d[5mC]*e[5mC]*eT*eA; antisense) [compound 548732]
% inhibition [5]: 36%

547604 (antisense eA*eT*eA*eT*e[5mC]*dA*d[5mC]*dT*dG*dT*dA*d[5mC]*d[5mC]*dT*dA*eT*eA*eA*e[5mC]*eT) [compound 547604]
% inhibition [9]: 0%

546339 (antisense e[5mC]*eT*eT*eG*eA*dT*dA*dT*d[5mC]*dT*dT*dT*dT*d[5mC]*dT*eG*eG*e[5mC]*eA*eT) [compound 546339]
% inhibition [1]: 65%
% inhibition [2]: 64%
